Data as given in patent US20120004245A1, “COMPOUNDS FOR THE TREATMENT OF POSTERIOR SEGMENT DISORDERS AND DISEASES” (ALCON RESEARCH, LTD., priority 2010, published 2012).
Where two headings read alike, the source gives them in different places.

B1: Lucentis: Fab fragment of a humanized monoclonal antibody that binds all isoforms of VEGF-A (antibody, chains of the INN, looked up, V domains shown)
VH: EVQLVESGGGLVQPGGSLRLSCAASGYDFTHYGMNWVRQAPGKGLEWVGWINTYTGEPTYAADFKRRFTFSLDTSKSTAYLQMNSLRAEDTAVYYCAKYPYYYGTSHWYFDVWGQGTLVTVSS
VL: DIQLTQSPSSLSASVGDRVTITCSASQDISNYLNWYQQKPGKAPKVLIYFTSSLHSGVPSRFSGSGSGTDFTLTISSLQPEDFATYYCQQYSTVPWTFGQGTKVEIK
modifications: Fab

Tests used:
[1] = test system: laser-induced choroidal neovascularization (CNV); assay: Mouse laser-induced CNV, prevention; details: single ivt injection
Excerpt: METHODS. CNV was generated by laser-induced rupture of Bruch's membrane. […] A hand-held cover slip was applied to the cornea and used as a contact lens to aid visualization of the fundus. Three to four retinal burns were placed in randomly assigned eye (right or left eye for each mouse) using the Alcon 532 nm EyeLite laser with a slit lamp delivery system. The laser burns were used to generate a rupture in Bruch's membrane, which was indicated ophthalmoscopically by the formation of a bubble under the retina. Only mice with laser burns that produced three bubbles per eye were included in the study. Burns were typically placed at the 3, 6, 9 or 12 o'clock positions in the posterior pole of the retina, avoiding the branch retinal arteries and veins.
Each mouse was randomly assigned into one of the following treatment groups: noninjected controls, sham-injected controls, vehicle-injected mice, or one of three Compound-injected groups. Control mice received laser photocoagulation in both eyes, where one eye received a sham injection, i.e. a pars plana needle puncture. For intravitreal-injected animals, one laser-treated eye received a 2 or 5 μl intravitreal injection of 0.1%-3% of a RTKi or vehicle. For prevention studies, the intravitreal injection was performed immediately after laser photocoagulation. […] At 14 days post-laser, all mice were anesthetized and systemically perfused with fluorescein-labeled dextran. Eyes were then harvested and prepared as choroidal flat mounts with the RPE side oriented towards the observer. All choroidal flat mounts were examined using a fluorescent microscope. Digital images of the CNV were captured, where the CNV was identified as areas of hyperfluorescence within the pigmented background. Computerized image analysis was used to delineate and measure the two dimensional area of the hyperfluorescent CNV per lesion (μm^2) for the outcome measurement. The median CNV area/burn per mouse per treatment group or the mean CNV area/burn per treatment group was used for statistical analysis depending on the normality of data distribution; P<0.05 was considered significant.

[2] = test system: preretinal neovascularization; assay: Rat oxygen-induced retinopathy (OIR) model, regression; type: in vivo; details: for ED50 (nmole) / ED50 (μg): dose-response, single ivt injection; for Potency: relative to reference RTKi (=1)
Excerpt: (§1) METHODS: Pregnant Sprague-Dawley rats were received at 14 days gestation and subsequently gave birth on Day 22±1 of gestation. Immediately following parturition, pups were pooled and randomized into separate litters (n=17 pups/litter), placed into separate shoebox cages inside oxygen delivery chamber, and subjected to an oxygen-exposure profile from Day 0-14 postpartum. Litters were then placed into room air from Day 14/0 through Day 14/6 (days 14-20 postpartum). For prevention studies, each pup was randomly assigned into various treatment groups on Day 14/0. For those randomized into an injection treatment group: one eye received a 5 μl intravitreal injection of between 0.01%-1% of a RTKi and the contralateral eye received a 5 μl intravitreal injection of vehicle. At Day 14/6 (20 days postpartum), all animals were euthanized. For regression studies, each pup was randomly assigned as an oxygen-exposed control or into various treatment groups on […]. For those randomized into an injection treatment group: one eye received a 5 μl intravitreal injection of between 0.01%-1% RTKi and the contralateral eye received a 5 μl intravitreal injection of vehicle. At Day 14/7 (21 days postpartum), all animals were euthanized. Immediately following euthanasia, retinas from all rat pups were harvested, fixed in 10% neutral buffered formalin for 24 hours, subjected to ADPase staining, and fixed onto slides as whole mounts. Digital images were acquired from each retinal flat mount that was adequately prepared. Computerized image analysis was used to obtain a NV clockhour score from each readable sample. Each clockhour out of 12 total per retina was assessed for the presence or absence of preretinal NV. Statistical comparisons using median scores for NV clockhours from each treatment group were utilized in nonparametric analyses. Each noninjected pup represented one NV score by taking the average value of both eyes and was used in comparisons against each dosage group. Because the pups were randomly assigned and no difference was observed between oxygen-exposed control pups from all litters, the NV scores were combined for all treatment groups. P≦0.05 was considered statistically significant.

[3] = test system: bovine retinal endothelial cells (BRECs); assay: VEGF-induced proliferation of bovine retinal endothelial cells (BrdU ELISA); type: cell-based; details: for EC50: Bos taurus, Endothelial cell, read-out: VEGF ind BREC prolif EC50; for activity against VEGF-induced proliferation: in words, compared to Compounds I-VII
Protocol: METHODS. […] After another 22-24 hours the cells are treated with or without 50 ng/ml VEGF media and the test compounds in the 1% FBS media. After 30 hours BrdU is then added for the final 16 hours of the incubation. All cells are then fixed and assayed with a colorimetric BrdU ELISA kit.

[4] = test system: VEGF-induced retinal vascular permeability; assay: VEGF-induced retinal vascular permeability in the rat, intravitreal delivery; type: in vivo; details: for Efficacy (0.1%) / Efficacy (1%): inhibition of VEGF-induced RVP vs vehicle-injected controls, *P<0.05; for Efficacy (0.1%): single ivt injection of 0.1% suspension; for Efficacy (1%): single ivt injection of 1% suspension; for ED50 (nmole) / ED50 (μg) / Potency: rat VEGF-induced RVP; for ED50 (nmole) / ED50 (μg): dose-response, single ivt injection; for Potency: relative to reference standard, * = equipotent, 95% CL encompass 1.0
Protocol: METHODS: Adult Sprague-Dawley rats were anesthetized with intramuscular ketamine/xylazine and their pupils dilated with topical cycloplegics. […] Ten μl of each compound was intravitreally injected in each treatment eye (n=5˜6 animals per group). Three days following first intravitreal injection, all animals received an intravitreal injection of 10 μl 500 ng hr VEGF in both eyes. Twenty-four hours post-injection of VEGF, intravenous infusion of 3% Evans blue dye was performed in all animals, where 50 mg/kg of Evans blue dye was injected via the lateral tail vein during general anesthesia. After the dye had circulated for 90 minutes, the rats were euthanized. The rats were then systemically perfused with balanced salt solution, and then both eyes of each rat were immediately enucleated and the retinas harvested using a surgical microscope. After measurement of the retinal wet weight, the Evans blue dye was extracted by placing the retina in a 0.2 ml formamide (Sigma) and then the homogenized and ultracentrifuged. Blood samples were centrifuged and the plasma diluted 100 fold in formamide. For both retina and plasma samples, 60 μl of supernatant was used to measure the Evans blue dye absorbance (ABS) with at 620/740 nm. The blood-retinal barrier breakdown and subsequent retinal vascular permeability as measured by dye absorbance were calculated as means+/−s.e.m. of net ABS/wet weight/plasma ABS. One way ANOVA was used to determine an overall difference between treatment means. And a test or Man-Whitney rank sum test was performed for a pair-wise comparison between treatment groups, where P<0.05 was considered significant.

[5] = test system: preretinal neovascularization; assay: Rat oxygen-induced retinopathy (OIR) model, prevention; type: in vivo; details: for ED50 (nmole) / ED50 (μg) / Potency: Rat OIR Prevention; for ED50 (nmole) / ED50 (μg): dose-response, single ivt injection; for Potency: relative to reference RTKi (=1); for Efficacy (0.1%) Median-value / Efficacy (1%) Median-value: rat OIR prevention, vs vehicle, *P<0.05; for Efficacy (0.1%) Median-value: single ivt injection of 0.1% suspension; for Efficacy (1%) Median-value: single ivt injection of 1% suspension
Excerpt: as §1

KDR (VEGFR2) kinase = molecular target: T1, KDR (VEGFR2) kinase (Homo sapiens, UniProt P35968); assay: KDR HTRF kinase assay (KinEASE-TK); type: biochemical; details: for IC50: HTRF enzyme assay, KDR (human VEGFR2); for activity against KDR: in words, compared to Compounds I-VII
T1 construct: purchased Cell Signaling Technology
T1 sequence (P35968 20-1356): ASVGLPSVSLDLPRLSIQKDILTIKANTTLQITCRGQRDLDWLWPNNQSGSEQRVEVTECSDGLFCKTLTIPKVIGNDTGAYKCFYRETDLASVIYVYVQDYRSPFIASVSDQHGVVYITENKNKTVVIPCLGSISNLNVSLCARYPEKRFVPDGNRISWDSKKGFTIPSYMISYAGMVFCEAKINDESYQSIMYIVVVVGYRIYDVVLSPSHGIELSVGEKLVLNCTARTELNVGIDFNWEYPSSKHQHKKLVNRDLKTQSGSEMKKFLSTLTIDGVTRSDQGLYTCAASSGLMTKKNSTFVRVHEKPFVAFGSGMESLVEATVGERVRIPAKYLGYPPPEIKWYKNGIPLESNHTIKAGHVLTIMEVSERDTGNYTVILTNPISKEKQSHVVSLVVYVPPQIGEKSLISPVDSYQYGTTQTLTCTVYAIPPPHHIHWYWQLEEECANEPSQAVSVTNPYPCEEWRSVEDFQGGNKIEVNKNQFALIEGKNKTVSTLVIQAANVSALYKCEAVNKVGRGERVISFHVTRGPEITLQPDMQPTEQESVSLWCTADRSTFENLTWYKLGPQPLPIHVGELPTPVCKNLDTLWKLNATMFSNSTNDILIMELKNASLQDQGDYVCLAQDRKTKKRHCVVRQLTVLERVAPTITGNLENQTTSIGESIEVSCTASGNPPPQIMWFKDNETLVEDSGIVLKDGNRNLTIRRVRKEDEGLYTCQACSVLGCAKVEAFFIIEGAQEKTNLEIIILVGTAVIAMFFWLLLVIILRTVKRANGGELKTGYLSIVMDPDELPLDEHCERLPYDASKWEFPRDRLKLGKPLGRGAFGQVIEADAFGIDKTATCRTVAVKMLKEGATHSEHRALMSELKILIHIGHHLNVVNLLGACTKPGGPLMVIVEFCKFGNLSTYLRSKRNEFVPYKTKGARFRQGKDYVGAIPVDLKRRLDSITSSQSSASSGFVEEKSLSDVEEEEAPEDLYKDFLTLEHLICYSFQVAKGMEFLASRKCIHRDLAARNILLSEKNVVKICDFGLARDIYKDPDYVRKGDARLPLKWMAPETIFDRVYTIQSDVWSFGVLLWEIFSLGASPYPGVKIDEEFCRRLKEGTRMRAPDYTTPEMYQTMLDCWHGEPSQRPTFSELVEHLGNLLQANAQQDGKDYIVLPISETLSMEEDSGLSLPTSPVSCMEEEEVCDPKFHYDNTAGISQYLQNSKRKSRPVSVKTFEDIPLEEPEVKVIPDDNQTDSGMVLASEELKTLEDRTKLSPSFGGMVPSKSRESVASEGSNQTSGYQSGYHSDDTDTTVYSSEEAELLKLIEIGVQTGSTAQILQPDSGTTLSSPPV
Protocol: METHODS. A 7-point HTRF (Homogeneous Time Resolved Fluorescence) kinase assays were performed using a Biomek 3000 Robotic Workstation in a 96-well plate format to determine IC50 values for the test compounds for KDR (VEGFR2) kinase using KinEASE-TK kit from CisBio. This is a general kit for tyrosine kinases including KDR kinase. The KDR kinase was purchased from Cell Signaling Technology. The assay is run in two steps. The phosphorylation of the biotin-tagged generic peptide substrate ([…]) is initiated by the addition of ATP ([…]) in the presence of KDR kinase (5 ng in […] reaction mixture) in step 1 and the reaction is stopped after 30 min incubation at room temperature by the addition of a mixture containing two HTRF detection reagents and EDTA in step 2. The substrate, enzyme, and ATP dilutions were made with the buffer provided by CisBio. Compound dilutions were made either in 5% DMSO or 10:10, (DMSO:Ethanol) to prepare 4× working stock solutions. The HTRF detection reagents were an antibody to phosphotyrosine, labeled with Eu(K) (the HTRF donor), and a streptavidin-XL665 (the HTRF acceptor).

[6] = test system: best-corrected visual acuity (BCVA); details: intravitreal, 4 week intervals, Phase III trials; cited from earlier work
[7] = 20 μg/1.0%, * significant vs vehicle-injected controls
[8] = 50 ng/ml VEGF, BrdU incorporation

Molecule	Prevention Efficacy ([1]; 2 μg/0.1%)	Prevention Efficacy [1, 7]	ED50 (nmole) [2] [nmol]	ED50 (μg) [2] [µg]	Potency [2]	Efficacy (0.1%) [4]	Efficacy (1%) [4]	ED50 (nmole) [4]	ED50 (μg) [4] [µg]	Potency [4]	ED50 (nmole) [5] [nmol]	ED50 (μg) [5] [µg]	Potency [5]	Efficacy (0.1%) Median-value [5]	Efficacy (1%) Median-value [5]	EC50 [3, 8] [nM]	further results
Cc1cccc(NC(=O)Nc2ccc(-c3cncc4[nH]nc(N)c34)cc2)c1 [Compound I, 1-[4-(3-Amino-1H-pyrazolo[3,4-c]pyridin-4-yl)-phenyl]-3-m-tolyl-urea]	−53.8%	37.6%	25.47	9.13	2.26	65.4%*	88.9%*	4.04^ nmole	1.447	1.2*	13.44	4.82	5.75	100%*	100%*		EC50 [3]: 0.16 nM
Cc1cccc(NC(=O)Nc2ccc(-c3csc4ncnc(N)c34)cc2)c1 [Compound II, 1-[4-(4-Amino-thieno[2,3-d]pyrimidin-5-yl)-phenyl]-3-m-tolyl-urea]	2 μg/0.1% = 40.6%	20 μg/1.0% = 69.0%*	24.31	9.13	2.3	85.2%*	85.7%*	7.62 nmol	2.86	0.392*	12.17	4.57	6.23	32.2%	100%*	0.11	Relative Potency vs Reference ([3]; BREC proliferation, relative to reference standard RTKi): 14.5 ± 15.1
Cc1cc(O)cc(NC(=O)Nc2ccc(-c3cccc4[nH]nc(N)c34)cc2)c1 [III, 1-[4-(3-Amino-1H-indazol-4-yl)-phenyl]-3-(3-hydroxy-5-methyl-phenyl)-urea]						−96.7%	−316.9%	>80.3 nmol	>30	0.028	15.85	5.92	4.03	1.5%	100%*	0.45 ± 0.05	
COCCOc1ccc(-c2ccc(NC(=O)Nc3cccc(C)c3)cc2)c2c(N)n[nH]c12 [IV, 1-{4-[3-Amino-7-(2-methoxy-ethoxy)-1H-indazol-4-yl]-phenyl}-3-m-tolyl-urea]	2 μg/0.1% = 1.1%	20 μg/1.0% = 49.7%*				73.9%*	−148.2%				13.23	5.71	4.2	100%*	100%*	0.1 ± 0.01	Prevention Efficacy ([1]; 6 μg/0.3%): 6 μg/0.3% = 13.9%
Cc1ccc(F)c(NC(=O)Nc2ncc(-c3cccc4[nH]nc(N)c34)cn2)c1 [IX]																	VEGF ind BREC prolif EC50 [3, 8]: Not Active; activity against VEGF-induced proliferation [3]: completely inactive; IC50 (KDR (VEGFR2) kinase): > 10 µM; activity against KDR (KDR (VEGFR2) kinase): essentially have no activity
Cc1cccc(NC(=O)Nc2ccc(-c3csc4ccnc(N)c34)cc2)c1 [V, 1-[4-(4-Amino-thieno[3,2-c]pyridin-3-yl)-phenyl]-3-m-tolyl-urea]						64.0%	40.4%	3.8^ nmole	1.42	1.38*	24.11	9.03	1.94	16.9%	100%*	1.57 ± 1.24	
Cc1cccc(NC(=O)Nc2ccc(-c3csc4c(-c5ccncc5)cnc(N)c34)cc2)c1 [VI, 1-[4-(4-Amino-7-pyridin-4-yl-thieno[3,2-c]pyridin-3-yl)-phenyl]-3-m-tolyl-urea]			39.46	17.82	1.75	106.5%*	70.6%*				13.31	6.01	3.86	35.7%	88.4* %	0.07 ± 0.069	
Cc1cccc(NC(=O)Nc2ccc(-c3csc4c(-c5cccnc5)cnc(N)c34)cc2)c1 [VII, 1-[4-(4-Amino-7-pyridin-3-yl-thieno[3,2-c]pyridin-3-yl)-phenyl]-3-m-tolyl-urea]			20.86	9.42	2.49	84%*	73.5%*	5.47 nmol	2.47	0.621*	15.74	7.11	3.23	9.6%	100* %	0.11 ± 0.086	
Nc1n[nH]c2cccc(-c3ccc(NC(=O)Nc4c(Cl)cccc4Cl)cc3)c12 [VIII]																	VEGF ind BREC prolif EC50 [3, 8]: Not Active; activity against VEGF-induced proliferation [3]: completely inactive; IC50 (KDR (VEGFR2) kinase): > 10 µM; activity against KDR (KDR (VEGFR2) kinase): essentially have no activity
B1																	treated patients with maintained best-corrected visual acuity (BCVA) [6]: 95%
